Assays:
[1] = tested on: embryonic stem cells (ESCs); details: ascorbic acid 0.01 mM; other antioxidants compared; Takahashi et al 2003; cited from earlier work
[2] = tested on: single BMSCs clones (fast-growing and slow-growing) and mixed MSCs; assay: Cardiogenic potential of mixed MSCs and single BMSCs clones under ascorbic acid; format: cell-based, porcine; details: 4 weeks
Method: The porcine mixed MSCs of example 1.1 were collected from upper and interface layers, and then seeded at limited dilution into culture. Briefly, 1×10^4 mononucleated cells were plated in each well of a 96-multiwell plate, washed with HBSS (Gibco) twice, and then cultured in αMEM (Hyclone) containing 20% FBS from selected lots at 37° C. in humid air with 5% CO2. Non-adhesive cells were removed by medium change and the number of the remaining cells attached to the bottom of culture wells was examined under the microscope. Clones from wells containing only a single cell attached were chosen for further study. The isolated cells were further cultured for 3 passages, and then frozen in liquid nitrogen until the differentiation studies.
For selecting the fast-growing single BMSCs clones, the nucleated cells were seeded onto 1,000 wells following limited dilution in culture (10^4 cells/well), and 120 clones, each of which was derived from a single attached cell in the well, were obtained. Morphologically, all of the clones comprised a relatively homogeneous population of fibroblast-like cells at subconfluence, while at confluence the cells appeared more polygonal and formed a tight packed monolayer.
To examine the cardiogenic potential of single BMSCs clones, mixed MSCs of example 1.1 and isolated single BMSCs clones of example 1.2 (both fast-growing clones of clones 1-4 and slow-growing clones of clones 5-8) were cultured in the presence of 1 mM ascorbic acid for 4 weeks, and one representative result was illustrated in FIG. 3. Before ascorbic acid treatment, there were no differences in terms of morphology among mixed population of MSCs (FIG. 3A), fast-growing clone No. 1 (FIG. 3B) and slow-growing clone No. 8 (FIG. 3C), respectively.

[3] = tested on: cardiac troponin I in fast growing BMSC clones; assay: Western blot of cardiac troponin I and connexin43; format: cell-based, porcine; details: fast growing BMSC clone No. 1 treated with ascorbic acid
Method: (§1) The effect of ascorbic acid on the expression of myogenic associated genes and proteins were examined by Reverse-transcription polymerase chain reaction (RT-PCR) (FIG. 5) and western blot (FIG. 6), respectively.
Western Blot Total protein from the differentiated MSCs were extracted with cell lysis buffer (Pierce) containing 1× protease inhibitor cocktail (Roche). Protein concentration was determined by a Bio-Rad protein assay kit. Samples were boiled for 5 minutes and then subjected to 12.5% polyacrylamide gel electrophoresis. Proteins in gel were electrophoretically transferred to polyvinylidene diflouride membrane (PVDF, Millipore) at 4° C. for overnight in 25 mM Tris, 190 mM glycine (pH 8.3) containing 0.01% SDS and 10% methanol. The membrane was blocked with 5% non-fat milk to prevent nonspecific binding and then incubated with one of […] primary antibodies. Subsequently, the membrane was stained with primary antibodies that were against cardiac troponin I (at a dilution of 1:1000) and connexin43 (at a dilution of 1:2000) (Chemicon) (Makino et al., (1999) J. Clin. Invest. 103(5), 697-705), respectively, for 1 hour at room temperature. […] Bound antibodies were recognized by horseradish peroxidase-conjugated goat anti-mouse IgG and ECL reagent (Pierce), and detected by chemiluminescent detection.

porcine mixed MSCs = assay: Cardio differentiation (myotube formation) of mixed MSCs by differentiation agents; format: cell-based; details: 4 weeks of culture, 5-azacytidine 3 μM, ascorbic acid 1 mM
Method: Porcine bone marrow mononucleated cells were purified according to a protocol described by Haynesworth et al (Haynesworth et al., (1992) Bone 13(1), 81-8). Briefly, bone marrows from posterior iliac crest bones of three 6-8 months old Lee-Sung miniature pigs (Luh et al., (2000) Transplantation 69(10), 2019-2027) ([…]) were aspirated into syringes that contained 6,000 unit heparin. The marrow samples were diluted in a ratio of 1:1 with HBSS (Gibco) and loaded onto 1.073 g/mL Ficoll solution (Amersham) in 50 mL centrifugations tubes and were centrifuged at 2,000 rpm for 40 min at room temperature. The mononucleated cells were collected from upper and interface layers, and washed with HBSS (Gibco) twice. Subsequently, the cells were cultured in αMEM (Hyclone) medium containing 100 unit/ml penicillin, 100 μg/ml streptomycin (Gibco) and 20% fetal bovine serum (FBS) from a selected lot (Gibco, Lot No.: 1149239) at 37° C. in humid air with 5% CO2. After a series of continuously cultures, the non-adhesive cells were removed by medium change. Porcine mixed mesenchymal stem cells (MSCs) thus obtained may be used directly in the differentiation experiment of example 1.3 and can be successfully propagated for at least 2 months. […]

differentiated MSCs = assay: Myotube formation detected by immunohistochemistry (phallacidin / propidium iodide staining); format: cell-based, porcine; details: differentiated MSCs after ascorbic acid induction, confocal microscopy
Method: To further verify the myotube formation by ascorbic acid induction, the differentiated MSCs were stained with fluorescent phallacidin, which binds to F-actin, to reveal the formed myofibrils under phase contrast microscope (FIG. 4A) and fluorescence microscope (FIGS. 4B, 4C, and 4D), respectively. Briefly, the differentiated MSCs were washed three times with PBS for 3 minutes and the cells were then fixed with 4% paraformaldehyde for 15 min, and normalized with 0.1M glycine for 5 min, and permeabilized with 0.1% Tween 20 for 1 min. The myotube formation was confirmed by treating with alexa flour 488-conjugate phallacidin (Molecular Probes) for 20 min at room temperature. The cells were then washed two or more times with PBS. The multi-nucleate myotubes were stained by propidium iodide (Sigma) for 5 min at room temperature. After washing, they were mounted and observed under confocal laser scanning microscopy, and the multinucleated myotubes, which are one of the characteristics of fused myogenic cells, were detectable by propidium iodide staining (FIGS. 4B, 4C, and 4D).

[4] = tested on: myogenic associated genes in MSCs; assay: RT-PCR of myogenic associated genes; format: cell-based, porcine
Method: as §1
RT-PCR Total RNA was extracted from differentiated MSCs using a RNA mini Kit (e.g., QIAGEN). Subsequently, cDNA was synthesized from 1 μg of extracted total RNA using a ThermoScript RT-PCR kit (Invitrogen). The PCR reaction was carried out with Taq DNA polymerase (Invitrogen). Reverse-transcription polymerase chain reaction (RT-PCR) of myogenic associated genes, including actin, alpha 1, skeletal muscle (ACTA), actin, alpha, cardiac muscle (ACTC) (Kubalak et al., (1994) J. Biol. Chem. 269(24), 16961-16970), mef-2c, mef-2d (Skerjanc et al., (1998) J. Biol. Chem. 273(52), 34904-34910), myogenin (Wright et al., (1989) Cell 56(4), 607-617), nkx2.5 (Lints et al., (1993) […]) and tef-1 (Chen et al., (1994) Genes Dev 8(19), 2293-2301), were performed on the differentiated cell samples (Table 1). The relative expression level of glyceraldehyde 3-phosphate dehydrogenase (GAPDH) was used as an internal control for each sample, and porcine heart and skeletal muscle cells were used as a positive control of differentiation pathway. A spectrophotometer (Amersham Bioscience) and Agilent 2100 Bioanalyzer (Agilent Technologies) were used to measure the total RNA of concentration and integrity, respectively. Results were illustrated in FIG. 5.

[5] = background statement; cited from earlier work
[6] = MSCs after ascorbic acid treatment
[7] = over the course of differentiation

For vitamin E, the “induction of differentiation of ESCs into cardiomyocytes” value [1] is given as “not mimicked”.
For `O=S(=O)(O)c1cc(O)c(O)c(S(=O)(=O)O)c1` [Tiron], the “induction of differentiation of ESCs into cardiomyocytes” value [1] is listed as “not mimicked”.
For `CC(=O)N[C@@H](CS)C(=O)O` [N-acetylcysteine], the “induction of differentiation of ESCs into cardiomyocytes” value [1] is given as “not mimicked”.
For `O=C1O[C@H]([C@@H](O)CO)C(O)=C1O` [ascorbic acid], the “morphology after ascorbic acid treatment” value ([2]; fast-growing clone No. 1, 1 mM ascorbic acid) was “started to form myotube-like structures from the third week”, the “morphology after ascorbic acid treatment” value ([2]; mixed MSCs, 1 mM ascorbic acid) was “started to form myotube-like structures from the third week” and the “morphology after ascorbic acid treatment” value ([2]; slow-growing clone No. 8, 1 mM ascorbic acid) was “retained a fibroblast-like morphology after 4 weeks”. The “expression of cardiac troponin I protein” value [3] was “expression of a heart specific protein, i.e., cardiac troponin 1”, the “induction of differentiation of ESCs into cardiomyocytes” value [1] was “induction of differentiation of ESCs into cardiomyocytes” and the “differentiation rate (formation of myotubes)” value (porcine mixed MSCs) was roughly 25%. For the same compound, the “multinucleated myotubes by propidium iodide staining” value (differentiated MSCs) was “detectable”, the “expression of ACTA gene” value [4, 6] was “increased significantly” and the “expression of mef-2d gene” value [4, 6] was “increased significantly”. The “expression of myogenin gene” value [4, 6] was “increased significantly”, the “expression of ACTC gene” value [4, 7] was “no significant change” and the “expression of mef-2c gene” value [4, 7] was “no significant change”. The “expression of nkx2.5 gene” value [4, 7] was “no significant change”.
For `Nc1ncn([C@@H]2O[C@H](CO)[C@@H](O)[C@H]2O)c(=O)n1` [5-azacytidine], the “differentiation rate (formation of myotubes)” value (porcine mixed MSCs) is listed as “about 10%” and the cytotoxicity [5] is listed as “cytotoxic”.

Source: US7534607B1, “Method of producing cardiomyocytes from mesenchymal stem cells” (Industrial Technology Research Institute, priority 2005, dated 2009)
